Test results reported in patent US7683045B2, “Class of γδ T cells activators and use thereof” (Innate Pharma S.A., priority 2005, dated 2010).
Entries after “also recorded” stand apart in the source; their conditions may differ. Like-named read-outs stand apart in the source and are kept apart here.

Key:
[1] = tested on: primary polyclonal human Vγ9Vδ2 T cells; test: TNFα release (cytokine release) assay; assay type: cell-based; conditions: for relative potency in words: TNFα release assay, comparison of the tested compounds
Method: Cells (primary polyclonal human Vγ9Vδ2 T cells which have been expanded in vitro and stored frozen at day 12-15 of expansion) are thawed and rinsed twice and centrifuged. Upon elimination of supernatant and resuspension of cells, the cells are incubated for 24 h at 37° C. in the presence of IL2 100 IU/ml (final concentration). The cells are washed and centrifuged, following which the supernatant is eliminated and the cells are resuspended and adjusted to the adequate final concentration. The cells are added to the wells of a 96-well plate.
To one row of wells is added a standard dilution series of (R,S)-3-(bromomethyl)-3-butanol-1-yl-diphosphate (R,S-BrHPP). Compounds to be tested, in this case (E)-4-hydroxy-3-methyl-2-butenyl pyrophosphate ((E)-HDMAPP) and the HAngelylPP and HTiglylPP compounds of the Angelyl/Tiglyl phosphoester series are added to experimental wells, after several dilutions.
Full plates are incubated 24 hours at 37° C. for stimulation of the γδ cells with the test compound and reference compounds, in this case HAngelylPP and HTiglylPP, (R,S)—BrHPP and (E) —HDMAPP, as further described below. After this time, 100 μl of culture supernatant is taken for TNFα dosage. Measurement of the released TNFα dosage is performed as described by the manufacturer's instruction in the TNFα enzyme immunoassay kit (ref. 11121, Immunotech—Beckman Coulter). OD at 405 nm is read, the OD being proportional to the concentration of released TNFα in the culture supernatant. The data are processed with the Excel software to compare concentration of test compound versus concentration of TNFα and for the calculation of the EC50 for each test compound.
The bioactivity of the compound HAngelylPP was assessed using a TNFα release assay as described above. Compounds (R,S)—BrHPP and (E)-HDMAPP were included for purpose of comparison. […] As will be appreciated, any other suitable assays such as cell amplification may be used in assessing compounds.

γδ T cells = conditions: reported at best (Wilhelm et al., 2003); cited from earlier work

(Z)-4-hydroxy-2-methylbut-2-enyl pyrophosphate [HAngelylPP]
relative potency in words [1]: highly potent; also recorded: the most potent compound of those tested

(E)-4-hydroxy-2-methylbut-2-enyl pyrophosphate [HTiglylPP]
relative potency in words [1]: highly potent | EC50 ([1]; TNFα release, 24 hours stimulation at 37° C., relative screening test (FIG. 3), read-out: in vitro EC50): 15 nM

CC(O)(CBr)CCOP(=O)(O)OP(=O)(O)O (racemic) [(R,S)-BrHPP, (R,S)-3-(bromomethyl)-3-butanol-1-yl-diphosphate, reference compound]
EC50 ([1]; Homo sapiens, T-cell, TNFα release, 24 hours stimulation at 37° C., relative screening test (FIG. 3), read-out: in vitro EC50): 37.7 nM | EC50 ([1]; Homo sapiens, T-cell, prior assays with calibrated cells using a (R,S)-BrHPP-standard composition, read-out: EC50): ~15 nM

NCCC(O)(P(=O)(O)O)P(=O)(O)O [pamidronate]
increase in γδ T cell count (γδ T cells): ≤ 2 fold
